Measurements reported in paper PMC3924858 (Journal of medicinal chemistry, 2013).

Molecular target: human mGlu5 receptor (Homo sapiens, UniProt P41594)
Sequence (P41594 21-1180 isoform P41594-2 limits assumed): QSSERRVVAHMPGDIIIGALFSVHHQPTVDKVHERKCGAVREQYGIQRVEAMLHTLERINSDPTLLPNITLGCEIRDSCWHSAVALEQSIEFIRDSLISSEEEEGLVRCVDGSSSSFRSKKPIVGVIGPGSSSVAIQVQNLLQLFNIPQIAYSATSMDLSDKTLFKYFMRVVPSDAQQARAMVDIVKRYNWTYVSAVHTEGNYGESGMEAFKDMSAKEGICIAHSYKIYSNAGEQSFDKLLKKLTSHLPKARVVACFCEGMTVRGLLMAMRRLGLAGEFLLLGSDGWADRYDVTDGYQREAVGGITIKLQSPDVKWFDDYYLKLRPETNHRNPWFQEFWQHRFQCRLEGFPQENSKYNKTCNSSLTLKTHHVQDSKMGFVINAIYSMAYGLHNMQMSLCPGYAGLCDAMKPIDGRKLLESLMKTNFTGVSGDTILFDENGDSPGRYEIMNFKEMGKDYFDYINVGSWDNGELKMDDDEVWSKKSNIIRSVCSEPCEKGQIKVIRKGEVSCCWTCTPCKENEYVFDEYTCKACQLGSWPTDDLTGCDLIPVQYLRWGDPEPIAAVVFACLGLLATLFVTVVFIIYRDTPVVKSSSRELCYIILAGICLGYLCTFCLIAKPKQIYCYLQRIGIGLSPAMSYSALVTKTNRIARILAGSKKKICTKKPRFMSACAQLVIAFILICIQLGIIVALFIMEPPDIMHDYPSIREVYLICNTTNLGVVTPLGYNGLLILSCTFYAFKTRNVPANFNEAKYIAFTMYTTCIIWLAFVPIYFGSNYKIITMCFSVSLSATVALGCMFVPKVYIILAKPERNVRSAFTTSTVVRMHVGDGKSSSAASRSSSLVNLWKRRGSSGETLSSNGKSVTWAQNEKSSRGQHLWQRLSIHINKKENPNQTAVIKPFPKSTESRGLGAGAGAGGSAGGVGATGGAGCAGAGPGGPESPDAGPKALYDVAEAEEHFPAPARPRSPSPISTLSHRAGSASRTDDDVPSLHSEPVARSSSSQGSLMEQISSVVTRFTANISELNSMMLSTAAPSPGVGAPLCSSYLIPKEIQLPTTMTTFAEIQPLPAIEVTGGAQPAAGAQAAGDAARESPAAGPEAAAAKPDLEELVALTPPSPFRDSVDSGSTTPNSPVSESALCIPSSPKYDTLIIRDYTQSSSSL

Compound: O=C1c2sc(COc3ccccc3)nc2CCN1c1ccc(F)cn1 [16p, 5-(5-Fluoro-pyridin-2-yl)-2-phenoxymethyl-6,7-dihydro-5H-thiazolo[5,4-c]pyridin-4-one]
- Glu Max: 94 (89-99) %
